# According to patent publication US10112895B2, “Antivirals against molluscum contagiosum virus” (priority 2014, dated 2018):
# Entries after “also recorded” stand apart in the source; their conditions may differ. Where two headings read alike, the source gives them in different places.
# Assays:
# [1] = system: mD4-VV hybrid virus; test: microbe, parasite or virus in culture; type: cell-based, vaccinia hybrid virus containing mD4 of MCV; conditions: for EC50: Hybrid virus
# [2] = molecular target: T1, mD4 (Molluscum contagiosum virus, UniProt Q98260); test: Thermal shift (differential scanning fluorimetry) assay with purified 6His-mD4; type: binding; conditions: difference to DMSO mock treatment
# Procedure: Thermal shift assay. Thermal shift (differential scanning fluorimetry) assay was performed as previously described. Briefly, 5 μM purified 6His-mD4 was mixed with compounds in thin-wall PCR 96-plate wells at 20 μL total volume containing 25 mM phosphate buffer (pH 6.8), 0.2 M NaCl, 2.5% glycerol, 2% DMSO, 0.005% (w/v) Triton-X100, and 1× Sypro Orange. Fluorescence intensities were monitored using the Applied Biosystems 7500 Fast Real-Time PCR system (Carlsbad, Calif.) at 582 nm from 25-80 ° C. at a rate of 1° C./min To generate melting temperature (Tm), protein melting curves were plotted on GraphPad Prism and fitted to the Boltzmann sigmoidal model. Thermal shift (ΔTm) is the difference between the 2% DMSO mock-treatment and inhibitor treatment. All experiments were duplicated and repeated independently.
# [3] = molecular target: mD4-dependent processive DNA synthesis (6His-mD4, vA20 and vE9) (Molluscum contagiosum virus, UniProt Q98260); test: biochemical; parameters: species or system molluscum contagiosum virus / vaccinia virus
# [4] = system: vD4-VV rescue virus; test: microbe, parasite or virus in culture; type: cell-based; conditions: Orthopoxvirus vaccinia, BSC-1, 16 h, read-out: EC50, plaque reduction of vD4-VV rescue virus
# [5] = system: mD4-VV hybrid virus; type: cell-based, vaccinia hybrid virus containing mD4 of MCV
# [6] = Half-life stability in mouse liver microsomes; type: in vitro ADME; conditions: for half-life: mouse, liver microsomes
# [7] = system: BSC-1 cells; conditions: as previously determined; read-out: cytotoxicity CC50 on BSC-1 cells; cited from earlier work
# [8] = molecular target: T1, mD4; test: Binding to immobilized mD4 by SPR (Surface Plasmon Resonance); conditions: steady-state response, 1:1 binding model, 0-250 μM, 1% DMSO; read-out: binding affinity KD to mD4 protein by SPR
# Procedure: The binding of compound 2 to mD4 was determined by SPR. mD4 was immobilized onto a biosensor chip at ˜3500 RU, and compound 2 was injected at 0-250 μM in buffer with 1% DMSO. The binding affinity KD was determined from the plot of steady-state response (Req) against compound 2 concentrations and fitting to a 1:1 binding model (FIG. 10).
# [9] = system: mD4-VV hybrid virus; test: mD4-VV infection of 3-D human skin organ culture (viral titer and histology); type: cell-based; conditions: for viral titer of mD4-VV in 3-D human skin organ culture: 3 days post infection, compared to DMSO drug vehicle
# [10] = system: 2-D keratinocyte cultures; test: Toxicity on 2-D keratinocyte cultures; type: cell-based; conditions: at the concentrations used in the 3-D culture experiment
# [11] = BSC-1, 16 h, read-out: EC50, plaque reduction of mD4-VV hybrid virus
# T1 sequence (Q98260 1-226): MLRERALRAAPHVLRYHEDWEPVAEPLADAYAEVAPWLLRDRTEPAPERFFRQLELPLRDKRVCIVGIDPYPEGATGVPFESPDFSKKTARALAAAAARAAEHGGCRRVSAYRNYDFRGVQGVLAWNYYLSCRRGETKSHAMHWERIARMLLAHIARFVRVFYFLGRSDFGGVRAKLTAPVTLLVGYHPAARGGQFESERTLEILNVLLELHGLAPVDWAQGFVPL
# mD4-dependent processive DNA synthesis (6His-mD4, vA20 and vE9), sequence (Q98260 1-226): as above
compound,measurement,setting,value
"O=c1[nH]c2ccc(NCc3ccccc3OCc3ccc(F)cc3)cc2[nH]1 [Compound 6, 5-[[2-[(4-fluorophenyl)methoxy]phenyl]methylamino]-1,3-dihydrobenzimidazol-2-one]",EC50,"[1]; BSC-1, read-out: EC50 (mD4-VV)",13.9 µM
"Oc1ccc(NCc2ccccc2OCc2ccccc2)c(F)c1 [Compound 12, 4-[(2-benzyloxyphenyl)methylamino]-3-fluoro-phenol]",EC50,"[1]; BSC-1, read-out: EC50 (mD4-VV)",19.4 µM
"c1ccc(COc2ccccc2CNc2ccc3[nH]ncc3c2)cc1 [Compound 14, N-[(2-benzyloxyphenyl)methyl]-1H-indazol-5-amine]",EC50,"[1]; BSC-1, read-out: EC50 (mD4-VV)",7.9 µM
"Oc1ccc(NCc2ccccc2OCc2ccccc2)cc1 [Compound 10, 4-[(2-benzyloxyphenyl)methylamino]phenol]",Thermal shift (ΔTm) of 6His-mD4,[2]; 10 μM compound,2.2 °C
same,Thermal shift (ΔTm) of 6His-mD4,[2]; 40 μM compound,3.3 °C
same,IC50,[3],28 µM
same,EC50,[1]; [11],14 µM
same,EC50,"[1]; BSC-1, read-out: EC50 (mD4-VV)",35.6 µM
same,EC50,[4],11 µM
same,mD4-VV genomic DNA accumulation,[5],completely prevented
same,half-life,[6],6.7 min
same,CC50,[7],175 µM
"O=[N+]([O-])c1cccc(COc2ccccc2CNc2ccc(O)cc2)c1 [Compound 9, 4-[[2-[(3-nitrophenyl)methoxy]phenyl]methylamino]phenol]",EC50,"[1]; BSC-1, read-out: EC50 (mD4-VV)",13.3 µM
"c1ccc(COc2ccccc2CNc2ccc(-c3cnco3)cc2)cc1 [Compound 13, N-[(2-benzyloxyphenyl)methyl]-4-oxazol-5-yl-aniline]",EC50,"[1]; BSC-1, read-out: EC50 (mD4-VV)",14.4 µM
"NS(=O)(=O)c1ccc(NCc2cc(Cl)ccc2OCc2ccccc2)cc1 [Compound 3, 4-[(2-benzyloxy-5-chloro-phenyl)methylamino]benzenesulfonamide]",EC50,"[1]; BSC-1, read-out: EC50 (mD4-VV)",13.9 µM
"Nc1nc2c(ncn2COCCO)c(=O)[nH]1 [acyclovir, reference compound]",inhibitory effect in plaque reduction assay,[1],no inhibitory effect
"O=c1[nH]c2ccc(NCc3cc(Cl)ccc3OCc3ccccc3F)cc2[nH]1 [Compound 8, 5-[[5-chloro-2-[(2-fluorophenyl)methoxy]phenyl]methylamino]-1,3-dihydrobenzimidazol-2-one]",EC50,"[1]; BSC-1, read-out: EC50 (mD4-VV)",11 µM
"O=c1[nH]c2ccc(NCc3ccccc3OCc3ccccc3)cc2[nH]1 [Compound 2, 5-[(2-benzyloxyphenyl)methylamino]-1,3-dihydrobenzimidazol-2-one]",blocking processive DNA synthesis in vitro,[3],specific blocking processive DNA synthesis in vitro
same,EC50,[1]; [11],3 µM
same,EC50,"[1]; BSC-1, read-out: EC50 (mD4-VV)",10 µM
same,Kd,[8],32.8 µM
same,viral titer of mD4-VV in 3-D human skin organ culture,[9],blocks mD4-VV viral infection
same,viral titer of mD4-VV in 3-D human skin organ culture,[9]; listed as compound 2,significant decline in the viral titer
same,histological analysis of 3-D human skin organ culture infected with mD4-VV,"[9]; H&E stained cross-section, 3 days after infection",abundant population of stained keratinocytes was observed; also recorded: protection of the 3-D human skin organ culture
same,toxicity on 2-D keratinocyte cultures,[10],not toxic
same,increase of half-life in mouse liver microsomes above compound 10,[6]; compound 2 versus compound 10,greater than 5 fold
same,half-life,[6],36 min
"O=c1[nH]c2ccc(NCc3ccccc3OCc3ccc(Cl)cc3)cc2[nH]1 [Compound 4, 5-[[2-[(4-chlorophenyl)methoxy]phenyl]methylamino]-1,3-dihydrobenzimidazol-2-one]",EC50,"[1]; BSC-1, read-out: EC50 (mD4-VV)",11 µM
"O=c1[nH]c2ccc(NCc3cc(Br)ccc3OCc3ccccc3)cc2[nH]1 [Compound 7, 5-[(2-benzyloxy-5-bromo-phenyl)methylamino]-1,3-dihydrobenzimidazol-2-one]",EC50,"[1]; BSC-1, read-out: EC50 (mD4-VV)",11 µM
"O=[N+]([O-])c1cccc(COc2ccccc2CNc2ccccc2O)c1 [Compound 11, 2-[[2-[(3-nitrophenyl)methoxy]phenyl]methylamino]phenol]",EC50,"[1]; BSC-1, read-out: EC50 (mD4-VV)",17.7 µM
"Oc1ccc(NCc2cc(Br)ccc2OCc2ccc(F)cc2)cc1 [Compound 1, 4-[[5-bromo-2-[(4-fluorophenyl)methoxy]phenyl]methylamino]phenol]",EC50,"[1]; BSC-1, read-out: EC50 (mD4-VV)",19.9 µM
